Source: article PMC7288171, “Synergistic Effects of Thiosemicarbazides with Clinical Drugs against S. aureus” (Molecules, 2020)
In brackets after ≈: the same amount, converted by molar mass. Where two headings read alike, the source gives them in different places.

Columns and labels:
MSSA-3 = experiment: MIC, clinical isolate of S. aureus; type: cell-based; conditions: Staphylococcus aureus
Procedure: (§1) The antibacterial activity of the thiosemicarbazides 1–9 and antibiotics (amoxicillin, gentamicin, levofloxacin, linezolid, and vancomycin) was tested on the Gram-positive strains (Microbiologics, St. Cloud, MN, USA) (S. aureus ATCC 25923, S. aureus ATCC 6538, S. epidermidis ATCC 12228, B. subtilis ATCC 6633, B. cereus ATCC 10876, M. luteus ATCC 10240), the Gram-negative strains (Microbiologics, St. Cloud, MN, USA) (E. coli ATCC 25922, K. pneumoniae ATCC 13883, P. mirabilis ATCC 12453, P. aeruginosa ATCC 9027), and clinical isolates of S. aureus (Medical University of Lublin, Lublin, Poland) (MSSA-1, MSSA-2, MSSA-3, MSSA-4, MRSA-1).

MSSA-4 = experiment: MIC, clinical isolate of S. aureus; type: cell-based; conditions: Staphylococcus aureus
Procedure: as §1

MSSA-1 = experiment: MIC, clinical isolate of S. aureus; type: cell-based; conditions: Staphylococcus aureus
Procedure: as §1

MSSA-2 = experiment: MIC, clinical isolate of S. aureus; type: cell-based; conditions: Staphylococcus aureus
Procedure: as §1

MRSA-1 = experiment: MIC, clinical isolate of S. aureus; type: cell-based; conditions: Staphylococcus aureus
Procedure: as §1

B. subtilis ATCC 6633 = experiment: MIC, broth microdilution; type: cell-based; conditions: Bacillus subtilis, ATCC6633
Procedure: as §1

S. aureus ATCC 6538 = experiment: MIC, broth microdilution; type: cell-based; conditions: Staphylococcus aureus, ATCC6538
Procedure: as §1

[1] = system: S. epidermidis ATCC 12228; experiment: MIC, broth microdilution; type: cell-based; conditions: Staphylococcus epidermidis, ATCC12228
Procedure: as §1

B. cereus ATCC 10876 = experiment: MIC, broth microdilution; type: cell-based; conditions: Bacillus cereus, ATCC10876
Procedure: as §1

S. aureus ATCC 25923 [2] = experiment: MIC, broth microdilution; type: cell-based; conditions: Staphylococcus aureus, ATCC25923
Procedure: as §1

M. luteus ATCC 10240 = experiment: MIC, broth microdilution; type: cell-based; conditions: Micrococcus luteus, ATCC10240
Procedure: as §1

S. aureus DNA gyrase = molecular target: T1, S. aureus DNA gyrase (Staphylococcus aureus, UniProt P0A0K8+P20831); experiment: Gyrase supercoiling assay; type: biochemical
T1 construct: purchased Inspiralis, Norwich, UK
T1 sequence (P20831 whole entry): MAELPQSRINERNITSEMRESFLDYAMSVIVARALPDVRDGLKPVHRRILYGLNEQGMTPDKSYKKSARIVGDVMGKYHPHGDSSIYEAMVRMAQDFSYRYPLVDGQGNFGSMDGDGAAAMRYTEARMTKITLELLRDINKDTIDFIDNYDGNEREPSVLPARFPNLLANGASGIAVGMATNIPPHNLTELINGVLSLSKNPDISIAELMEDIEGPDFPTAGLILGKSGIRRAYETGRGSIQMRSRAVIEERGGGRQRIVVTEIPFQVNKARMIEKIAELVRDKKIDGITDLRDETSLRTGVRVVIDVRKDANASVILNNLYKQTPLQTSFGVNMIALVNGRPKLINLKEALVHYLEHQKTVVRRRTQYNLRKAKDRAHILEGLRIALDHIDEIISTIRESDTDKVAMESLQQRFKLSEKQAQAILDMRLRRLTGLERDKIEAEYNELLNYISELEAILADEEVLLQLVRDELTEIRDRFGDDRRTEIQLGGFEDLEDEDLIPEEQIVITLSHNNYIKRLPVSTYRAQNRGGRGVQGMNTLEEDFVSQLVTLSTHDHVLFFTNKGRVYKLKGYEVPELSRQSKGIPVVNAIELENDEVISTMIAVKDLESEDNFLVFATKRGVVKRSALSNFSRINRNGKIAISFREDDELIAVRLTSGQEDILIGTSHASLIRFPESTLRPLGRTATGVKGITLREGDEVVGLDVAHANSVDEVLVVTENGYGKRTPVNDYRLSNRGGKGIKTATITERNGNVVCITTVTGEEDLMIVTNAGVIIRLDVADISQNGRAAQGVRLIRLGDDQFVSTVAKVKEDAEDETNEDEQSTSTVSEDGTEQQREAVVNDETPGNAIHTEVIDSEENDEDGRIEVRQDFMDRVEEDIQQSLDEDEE
T1 sequence (P0A0K8 whole entry): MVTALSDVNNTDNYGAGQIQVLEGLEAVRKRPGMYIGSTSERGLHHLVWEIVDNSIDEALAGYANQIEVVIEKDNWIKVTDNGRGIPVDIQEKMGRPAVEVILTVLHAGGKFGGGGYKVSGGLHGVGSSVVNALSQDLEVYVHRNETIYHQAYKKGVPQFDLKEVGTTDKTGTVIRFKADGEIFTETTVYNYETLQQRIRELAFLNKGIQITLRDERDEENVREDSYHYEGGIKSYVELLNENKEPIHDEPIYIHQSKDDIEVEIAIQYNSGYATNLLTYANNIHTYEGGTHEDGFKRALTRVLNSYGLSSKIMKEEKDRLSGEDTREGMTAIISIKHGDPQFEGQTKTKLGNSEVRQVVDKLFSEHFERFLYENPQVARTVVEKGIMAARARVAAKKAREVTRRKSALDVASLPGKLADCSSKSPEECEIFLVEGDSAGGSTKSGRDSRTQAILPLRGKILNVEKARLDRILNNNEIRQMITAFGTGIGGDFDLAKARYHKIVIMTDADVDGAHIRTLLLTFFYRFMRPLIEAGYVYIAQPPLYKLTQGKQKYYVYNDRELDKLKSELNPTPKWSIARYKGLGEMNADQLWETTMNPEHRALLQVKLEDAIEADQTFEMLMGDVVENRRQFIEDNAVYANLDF
Procedure: Supercoiling assay: The assays were performed using S. aureus Gyrase Supercoiling Assay Kits (Inspiralis, Norwich, UK). Briefly, […] pBR322 plasmid DNA (0.5 µg) was incubated with 1 unit of gyrase, in the dedicated supercoiling assay buffer supplied by the manufacturer, in the presence of varying concentrations of the test compounds. Reactions were carried out at 37 °C for 1 h and then terminated by the addition of equal volume of 2 × STOP Buffer (40% sucrose, 100 mM Tris-Cl pH 7.5, 1 mM EDTA, and 0.5 mg/mL bromophenol blue) and chloroform/iso-amyl alcohol. Samples were vortexed, centrifuged, and run through a 15 cm 1% agarose gel in TAE buffer (40 mM Tris-acetate, 2 mM EDTA) for 3 h at 50 V. Gels were stained with ethidium bromide and visualized under UV light.

[3] = system: human foreskin fibroblast Hs27 cells (CRL-1634); experiment: MTT cytotoxicity assay; type: cell-based; conditions: Homo sapiens, 24 h of treatment
Procedure: (§2) A critical factor in research and development of new antibacterial agents is their abilities to selectively target bacterial cells without toxicity to mammalian cells. Thus, in order to test if antibacterial activity of title thiosemicarbazides is not due to their general toxicity, their effect on mammalian cell viability was assessed using human foreskin fibroblast Hs27 cells (CRL-1634) via MTT assay.
(§3) Cytotoxic properties of the compounds were evaluated using human foreskin fibroblast cells Hs27 (ATCC CRL-1634) (ATCC, Manassas, VA, USA) that were cultured in DMEM-high glucose (Sigma Aldrich, St. Louis, MO, USA). Medium was supplemented with 10% fetal bovine serum (FBS, Sigma Aldrich), 100 U/mL of penicillin, and […] of streptomycin (PenStrep, Sigma Aldrich, St. Louis, MO, USA). Cells were incubated at 37 °C in a humidified atmosphere of 5% CO2. Stock solutions of the tested compounds were prepared dissolving in a sterile dimethyl sulfoxide (DMSO) to the concentration of 50 mg/mL. The cells were seeded into 96-well sterile plates (Nunc) at a cell density of 1 × 10^5 cells/mL. After 24 h of incubation, the medium was removed from each well, and then cells were incubated for the next 24 h with tested compounds (in a fixed dose of 25 µg/mL) in DMEM-high glucose containing 2% FBS. Control cells were cultured only with medium containing 2% addition of FBS. Cytotoxicity of the compounds was evaluated using MTT assay, which is based on the conversion of 3-(4,5-dimethylthiazol-2-yl)-2,5- diphenyltetrazolium bromide (MTT) into dark-blue formazan crystals. Briefly, after 24-h incubation of cells with varying concentrations of the tested compounds, culture medium was removed from the plates. Cells were washed with PBS, and then 100 µL of medium containing 10% MTT solution (5 mg/mL) was added to each well. Cells were incubated for the next 3 h at 37 °C in an atmosphere of 5% CO2. Next, 100 µL (per well) of 10% sodium dodecyl sulfate (SDS) buffer solution was added to dissolve formazan crystals and after an overnight incubation the absorbance was measured at 570 nm using a microplate reader (Epoch, BioTek Instruments, Inc., Winooski, VT, USA).

MTT cytotoxicity assay = type: cell-based, human; conditions: human, Hs27 foreskin fibroblast cells (ATCC CRL-1634), 25 µg/mL, 24 h, vehicle control = 100%
Procedure: as §2, §3

S. aureus ATCC 25923 [4] = experiment: Checkerboard broth dilution synergy assay; type: cell-based
Procedure: The microdilution checkerboard method was used to evaluate the synergistic effects between the thiosemicarbazides 1–9 and antibiotics, which were determined as the fractional inhibitory concentration indices (FICIs). For these experiments, amoxicillin, gentamicin, levofloxacin, linezolid, and vancomycin were selected to represent the five antimicrobial classes most commonly used in clinical practice. In this way, a total of 45 combinations of thiosemicarbazide-amoxicillin, thiosemicarbazide-gentamicin, thiosemicarbazide-levofloxacin, thiosemicarbazide-linezolid, and thiosemicarbazide-vancomycin against S. aureus ATCC 25923 were tested to identify in vitro synergy effects.
Interaction of the thiosemicarbazides 1–9 in combination with amoxicillin, gentamicin, levofloxacin, linezolid or vancomycin against S. aureus ATCC 25923 were analyzed using the checkerboard broth dilution method to determine the fractional inhibitory concentration indices (FICIs), calculated as: FIC = MIC of drug A in combination/MIC of drug A alone + MIC of drug B in combination/MIC of drug B alone. The calculated FICIs were interpreted as synergistic (FIC ≤ 0.5), additive (0.5 < FIC < 1), indifferent (1 ≤ FIC < 4.0), or antagonistic (FIC ≥ 4.0). The checkerboard assay included ciprofloxacin-carvedilol combination as positive control, whereas cefuroxime in combination with 4-(4-bromophenyl)-1-(3-fluorobezoyl)thiosemicarbazide served as negative control. The Z-factor value for the bioassay was 0.683.

[5] = clinical isolate MSSA-3, read-out: MIC
[6] = clinical isolate MSSA-4, read-out: MIC
[7] = clinical isolate MSSA-1, read-out: MIC
[8] = clinical isolate MSSA-2, read-out: MIC
[9] = clinical isolate MRSA-1, read-out: MIC
[10] = B. s. ATCC 6633, compounds 6–9 and antibiotics, read-out: MIC
[11] = S. a. ATCC 6538, compounds 6–9 and antibiotics, read-out: MIC
[12] = S. e. ATCC 12228, compounds 6–9 and antibiotics, read-out: MIC
[13] = B. c. ATCC 10876, compounds 6–9 and antibiotics, read-out: MIC
[14] = S. a. ATCC 25923, compounds 6–9 and antibiotics, read-out: MIC
[15] = M. l. ATCC 10240, compounds 6–9 and antibiotics, read-out: MIC

| Structure (SMILES) | MIC (MSSA-3; [5]) [µg/mL] | MIC (MSSA-4; [6]) [µg/mL] | MIC (MSSA-1; [7]) [µg/mL] | MIC (MSSA-2; [8]) [µg/mL] | MIC (MRSA-1; [9]) [µg/mL] | MIC (B. subtilis ATCC 6633; [10]) [µg/mL] | MIC (S. aureus ATCC 6538; [11]) [µg/mL] | MIC [1, 12] [µg/mL] | MIC (B. cereus ATCC 10876; [13]) [µg/mL] | MIC (S. aureus ATCC 25923 [2]; [14]) [µg/mL] | MIC (M. luteus ATCC 10240; [15]) [µg/mL] | IC50 [3] [µg/mL] | viability at 24 h, 25 µg/mL (MTT cytotoxicity assay) [%] | further results |
| --- | --- | --- | --- | --- | --- | --- | --- | --- | --- | --- | --- | --- | --- | --- |
| CC1(C)S[C@@H]2[C@H](NC(=O)[C@H](N)c3ccc(O)cc3)C(=O)N2[C@H]1C(=O)O [AMX, amoxicillin, reference compound] | 0.98 (≈ 2.68 µM) | 31.2 (≈ 85.5 µM) | 1.95 (≈ 5.34 µM) | 0.12 (≈ 0.328 µM) | 31.2 (≈ 85.5 µM) | 0.12 (≈ 0.328 µM) | 0.12 (≈ 0.328 µM) | 7.81 (≈ 21.4 µM) | > 250 | 0.12 (≈ 0.328 µM) | 0.24 (≈ 0.657 µM) |  |  |  |
| CNC(C)C1CCC(N)C(OC2C(N)CC(N)C(OC3OCC(C)(O)C(NC)C3O)C2O)O1 (stereo not shown) [GN, gentamicin, reference compound] | 7.81 (≈ 16.4 µM) | 1.95 (≈ 4.08 µM) | 0.98 (≈ 2.05 µM) | 0.49 (≈ 1.03 µM) | 0.98 (≈ 2.05 µM) | 0.24 (≈ 0.503 µM) | 0.98 (≈ 2.05 µM) | 0.12 (≈ 0.251 µM) | 15.6 (≈ 32.7 µM) | 1.95 (≈ 4.08 µM) | 0.98 (≈ 2.05 µM) |  |  |  |
| C[C@H]1COc2c(N3CCN(C)CC3)c(F)cc3c(=O)c(C(=O)O)cn1c23 [LEV, levofloxacin, reference compound] | 0.12 (≈ 0.332 µM) | 0.12 (≈ 0.332 µM) | 0.12 (≈ 0.332 µM) | 0.24 (≈ 0.664 µM) | 31.2 (≈ 86.5 µM) | 0.12 (≈ 0.332 µM) | 0.24 (≈ 0.664 µM) | 0.12 (≈ 0.332 µM) | 0.12 (≈ 0.332 µM) | 0.24 (≈ 0.664 µM) | 0.98 (≈ 2.71 µM) | > 25 | 101 | inhibition at 100 µM (S. aureus DNA gyrase; 100 µM, read-out: S. aureus Gyrase DNA Inhibition (%) ± SD): 92.4 ± 3.74% |
| CC(=O)NC[C@H]1CN(c2ccc(N3CCOCC3)c(F)c2)C(=O)O1 [LZD, linezolid, reference compound] | 0.98 (≈ 2.9 µM) | 1.95 (≈ 5.78 µM) | 1.95 (≈ 5.78 µM) | 1.95 (≈ 5.78 µM) | 1.95 (≈ 5.78 µM) | 0.98 (≈ 2.9 µM) | 0.98 (≈ 2.9 µM) | 0.49 (≈ 1.45 µM) | 0.98 (≈ 2.9 µM) | 1.95 (≈ 5.78 µM) | 0.98 (≈ 2.9 µM) |  |  |  |
| CN[C@H](CC(C)C)C(=O)N[C@H]1C(=O)N[C@@H](CC(N)=O)C(=O)N[C@H]2C(=O)N[C@H]3C(=O)N[C@H](C(=O)N[C@H](C(=O)O)c4cc(O)cc(O)c4-c4cc3ccc4O)[C@H](O)c3ccc(c(Cl)c3)Oc3cc2cc(c3O[C@@H]2O[C@H](CO)[C@@H](O)[C@H](O)[C@H]2O[C@H]2C[C@](C)(N)[C@H](O)[C@H](C)O2)Oc2ccc(cc2Cl)[C@H]1O [VA, vancomycin, reference compound] |  |  |  |  |  |  |  |  |  |  |  |  |  | MIC (MSSA-3; MSSA): 0.49 µg/mL (≈ 0.338 µM); MIC (MSSA-4; MSSA): 0.49 µg/mL (≈ 0.338 µM); MIC (MSSA-1; MSSA): 0.49 µg/mL (≈ 0.338 µM); MIC (MSSA-2; MSSA): 0.49 µg/mL (≈ 0.338 µM); MIC (MRSA-1; MRSA): 0.98 µg/mL (≈ 0.676 µM); MIC (B. subtilis ATCC 6633): 0.24 µg/mL (≈ 0.166 µM); MIC (S. aureus ATCC 6538): 0.49 µg/mL (≈ 0.338 µM); MIC [1]: 0.98 µg/mL (≈ 0.676 µM); MIC (B. cereus ATCC 10876): 0.98 µg/mL (≈ 0.676 µM); MIC (S. aureus ATCC 25923 [2]): 0.98 µg/mL (≈ 0.676 µM); MIC (M. luteus ATCC 10240): 0.24 µg/mL (≈ 0.166 µM) |
| O=C(NNC(=S)Nc1ccc(Cl)cc1)c1ccccc1F [compound 6, 4-(4-chlorophenyl)-1-(2-fluorobenzoyl)thiosemicarbazide] | 250 (≈ 772 µM) | 125 (≈ 386 µM) | 250 (≈ 772 µM) | > 500 | 500 (≈ 1540 µM) | 500 (≈ 1540 µM) | 250 (≈ 772 µM) | 250 (≈ 772 µM) | 31.2 (≈ 96.5 µM) | 500 (≈ 1540 µM) | 7.82 (≈ 24.2 µM) | > 25 | 96.8 | inhibition at 50 µM (S. aureus DNA gyrase; 50 µM, read-out: S. aureus Gyrase DNA Inhibition (%) ± SD): 30.8 ± 3.19%; S. aureus Gyrase DNA Inhibition (%) ± SD (S. aureus DNA gyrase; 100 µM): 49.22 ± 3.18%; inhibition at 100 µM (S. aureus DNA gyrase; read-out: S. aureus Gyrase DNA Inhibition (%) ± SD, 100 µM): ~50%; interaction in combination (S. aureus ATCC 25923 [4]; combination with amoxicillin): additive; interaction in combination (S. aureus ATCC 25923 [4]; combination with gentamicin): synergistic; interaction in combination (S. aureus ATCC 25923 [4]; combination with levofloxacin): additive; interaction in combination (S. aureus ATCC 25923 [4]; combination with linezolid): synergistic; interaction in combination (S. aureus ATCC 25923 [4]; combination with vancomycin): additive |
